# Reference: ChEMBL document CHEMBL1938315, “Tricyclic 3,4-dihydropyrimidine-2-thione derivatives as potent TRPA1 antagonists” (Bioorg Med Chem Lett, 2012)
# Columns and labels:
# [1] = biological target: T1, Transient receptor potential cation channel subfamily A member 1 (Homo sapiens, UniProt O75762); assay: Antagonist activity at human TRPA1 expressed in HEK293 cells assessed as inhibition of 5H-dibenzo[b,e]azepine-10-carboxylic acid methyl ester-induced increase in intracellular calcium by Fluo4-AM based fluorometric assay; type: functional, cell-based
# [2] = biological target: T2, Transient receptor potential cation channel subfamily A member 1 (Rattus norvegicus, UniProt Q6RI86); assay: Antagonist activity at rat TRPA1 expressed in HEK293 cells assessed as inhibition of BITC-induced increase in intracellular calcium concentration by Fluo4-AM based fluorometric assay; type: functional, cell-based
# [3] = biological target: T2, Transient receptor potential cation channel subfamily A member 1; assay: Antagonist activity at rat TRPA1 expressed in HEK293 cells assessed as inhibition of N-methyl-maleimide-induced current by patch clamp assay
# [4] = biological target: T1, Transient receptor potential cation channel subfamily A member 1; assay: Antagonist activity at human TRPA1 expressed in HEK293 cells assessed as inhibition of N-methyl-maleimide-induced current by patch clamp assay
# T1 sequence (O75762 whole entry): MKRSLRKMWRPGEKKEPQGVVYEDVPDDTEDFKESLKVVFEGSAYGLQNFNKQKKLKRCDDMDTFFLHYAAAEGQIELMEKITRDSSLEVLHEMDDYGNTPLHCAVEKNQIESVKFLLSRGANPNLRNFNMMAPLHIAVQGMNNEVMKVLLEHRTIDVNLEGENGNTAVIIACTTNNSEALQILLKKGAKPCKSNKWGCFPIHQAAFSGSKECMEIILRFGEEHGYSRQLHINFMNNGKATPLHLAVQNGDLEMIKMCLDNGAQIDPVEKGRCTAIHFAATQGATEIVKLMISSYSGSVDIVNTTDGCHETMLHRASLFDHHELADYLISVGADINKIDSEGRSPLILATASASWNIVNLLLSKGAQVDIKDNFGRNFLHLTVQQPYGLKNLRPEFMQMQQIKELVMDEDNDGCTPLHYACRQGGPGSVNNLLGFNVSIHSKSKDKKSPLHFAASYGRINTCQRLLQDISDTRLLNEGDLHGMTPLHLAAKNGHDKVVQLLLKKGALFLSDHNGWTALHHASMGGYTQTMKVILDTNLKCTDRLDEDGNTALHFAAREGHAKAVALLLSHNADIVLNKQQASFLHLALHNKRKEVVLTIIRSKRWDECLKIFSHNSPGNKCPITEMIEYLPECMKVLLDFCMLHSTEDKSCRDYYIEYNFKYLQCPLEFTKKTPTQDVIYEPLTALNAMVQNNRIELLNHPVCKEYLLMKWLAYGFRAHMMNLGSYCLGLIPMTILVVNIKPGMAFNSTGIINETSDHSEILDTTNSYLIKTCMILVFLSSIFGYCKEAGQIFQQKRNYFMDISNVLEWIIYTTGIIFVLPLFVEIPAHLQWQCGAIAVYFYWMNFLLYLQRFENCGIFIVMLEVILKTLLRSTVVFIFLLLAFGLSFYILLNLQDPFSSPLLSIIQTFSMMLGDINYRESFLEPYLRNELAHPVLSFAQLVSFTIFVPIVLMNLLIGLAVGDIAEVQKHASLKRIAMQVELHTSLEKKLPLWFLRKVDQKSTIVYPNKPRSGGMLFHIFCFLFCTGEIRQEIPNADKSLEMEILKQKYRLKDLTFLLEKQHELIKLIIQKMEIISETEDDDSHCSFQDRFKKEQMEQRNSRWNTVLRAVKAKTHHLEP
# T2 sequence (Q6RI86 whole entry): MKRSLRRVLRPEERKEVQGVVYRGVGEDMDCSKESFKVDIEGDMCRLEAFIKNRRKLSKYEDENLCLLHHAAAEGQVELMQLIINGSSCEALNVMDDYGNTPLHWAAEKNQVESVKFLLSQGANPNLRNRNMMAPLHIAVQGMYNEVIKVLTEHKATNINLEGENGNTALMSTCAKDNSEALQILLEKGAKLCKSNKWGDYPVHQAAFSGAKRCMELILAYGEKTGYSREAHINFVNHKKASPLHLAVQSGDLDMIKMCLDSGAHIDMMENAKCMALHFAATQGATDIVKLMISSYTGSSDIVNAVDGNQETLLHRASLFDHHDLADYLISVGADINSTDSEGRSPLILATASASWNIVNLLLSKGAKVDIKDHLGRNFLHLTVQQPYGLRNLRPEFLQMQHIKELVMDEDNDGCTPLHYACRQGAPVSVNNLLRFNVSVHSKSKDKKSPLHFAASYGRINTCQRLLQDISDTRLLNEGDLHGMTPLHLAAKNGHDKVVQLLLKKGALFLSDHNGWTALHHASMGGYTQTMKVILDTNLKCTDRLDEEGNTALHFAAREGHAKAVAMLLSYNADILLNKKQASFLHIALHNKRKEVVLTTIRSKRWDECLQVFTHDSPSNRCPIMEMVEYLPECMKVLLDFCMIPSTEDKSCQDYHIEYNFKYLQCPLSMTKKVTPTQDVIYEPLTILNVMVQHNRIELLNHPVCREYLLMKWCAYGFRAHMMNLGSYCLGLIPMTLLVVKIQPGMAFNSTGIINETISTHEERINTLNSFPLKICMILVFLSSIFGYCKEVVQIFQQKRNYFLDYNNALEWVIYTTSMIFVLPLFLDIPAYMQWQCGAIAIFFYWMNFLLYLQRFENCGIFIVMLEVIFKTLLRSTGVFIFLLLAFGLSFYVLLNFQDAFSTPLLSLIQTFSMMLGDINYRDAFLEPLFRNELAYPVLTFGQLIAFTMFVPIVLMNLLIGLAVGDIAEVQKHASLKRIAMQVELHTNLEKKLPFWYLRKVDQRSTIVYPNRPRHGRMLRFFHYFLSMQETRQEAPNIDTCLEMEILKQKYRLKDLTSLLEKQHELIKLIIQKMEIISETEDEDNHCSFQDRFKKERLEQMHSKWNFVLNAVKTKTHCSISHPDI
IC50 [1],IC50 [2],EC50 [3],EC50 [4],SMILES
> 10 µM,5.6 µM,,,CC(C)c1ccc(NC(=O)Cn2cnc3c2c(=O)n(C)c(=O)n3C)cc1
> 10 µM,,,,O=C1CCCC2=C1C(c1ccccc1)NC(S)=N2 (stereo unspecified)
> 10 µM,,,,S=C(NCc1ccccc1)NCc1ccccc1
> 10 µM,,,,SC1=NC2=C(CCC/C2=C\c2ccccc2)C(c2ccccc2)N1 (stereo unspecified)
> 10 µM,,,,SC1=NC(c2ccccc2)=CC(c2ccccc2)N1 (stereo unspecified)
> 10 µM,> 10 µM,,,O=C1NC2=C(C(=O)c3ccccc32)C(c2ccccc2)N1 (stereo unspecified)
0.013 µM,0.004 µM,,,COCCCOc1cccc([C@H]2NC(=S)NC3=C2C(=O)c2ccccc23)c1
,> 10 µM,,,COCCCOc1cccc([C@@H]2NC(=S)NC3=C2C(=O)c2ccccc23)c1
0.075 µM,0.012 µM,0.22 µM,0.01 µM,COc1cccc([C@H]2NC(=S)NC3=C2C(=O)c2ccccc23)c1
,> 10 µM,,12 µM,COc1cccc([C@@H]2NC(=S)NC3=C2C(=O)c2ccccc23)c1
> 10 µM,> 10 µM,,,CN(C)CCCOc1cccc(C2NC(=S)NC3=C2C(=O)c2ccccc23)c1 (stereo unspecified)
1.5 µM,0.16 µM,,,COc1ccc(Oc2cccc(C3NC(=S)NC4=C3C(=O)c3ccccc34)c2)cc1 (stereo unspecified)
0.21 µM,0.047 µM,,,O=C1C2=C(NC(=S)NC2c2cccc(OCCO)c2)c2ccccc21 (stereo unspecified)
0.07 µM,0.01 µM,,,O=C1C2=C(NC(=S)NC2c2cccc(OCCCCO)c2)c2ccccc21 (stereo unspecified)
> 10 µM,8.9 µM,,,CN(C)CCOc1cccc(C2NC(=S)NC3=C2C(=O)c2ccccc23)c1 (stereo unspecified)
2.78 µM,0.8 µM,,,COc1cc(OC)cc(C2NC(=S)NC3=C2C(=O)c2ccccc23)c1 (stereo unspecified)
0.31 µM,0.07 µM,,,CCCCOc1cccc(C2NC(=S)NC3=C2C(=O)c2ccccc23)c1 (stereo unspecified)
> 10 µM,> 10 µM,,,O=C(O)c1cccc(C2NC(=S)NC3=C2C(=O)c2ccccc23)c1 (stereo unspecified)
,2.7 µM,,,COc1cccc(C2NC(=S)NC3=C2C(=O)c2ccccc23)c1OC (stereo unspecified)
,> 10 µM,,,COc1ccc(OC)c(C2NC(=S)NC3=C2C(=O)c2ccccc23)c1 (stereo unspecified)
0.64 µM,0.23 µM,,,O=C1C2=C(NC(=S)NC2c2cccc(O)c2)c2ccccc21 (stereo unspecified)

IC50 [1],IC50 [2],EC50 [3],EC50 [4],SMILES
0.71 µM,0.044 µM,,,O=C1C2=C(NC(=S)NC2c2cccc(CO)c2)c2ccccc21 (stereo unspecified)
3.1 µM,3.5 µM,,,COc1ccc(C2NC(=S)NC3=C2C(=O)c2ccccc23)cc1 (stereo unspecified)
,0.071 µM,,,O=C1C2=C(NC(=S)NC2c2cccc(Br)c2)c2ccccc21 (stereo unspecified)
2.07 µM,3.39 µM,,,O=C1C2=C(NC(=S)NC2c2ccccc2F)c2ccccc21 (stereo unspecified)
1.1 µM,0.39 µM,,,O=C1C2=C(NC(=S)NC2c2cccc(F)c2)c2ccccc21 (stereo unspecified)
> 10 µM,9.4 µM,,,COc1ccccc1C1NC(=S)NC2=C1C(=O)c1ccccc12 (stereo unspecified)
0.77 µM,0.31 µM,,,O=C1C2=C(NC(=S)N[C@@H]2c2ccccc2)c2ccccc21
8.1 µM,> 10 µM,,,O=C1C2=C(NC(=S)N[C@H]2c2ccccc2)c2ccccc21
> 10 µM,,,,S=C1NC2=C(CCCC2)C(c2ccccc2)N1 (stereo unspecified)
> 10 µM,,,,CC1=C(C(=O)c2ccccc2)C(c2ccccc2)NC(=S)N1 (stereo unspecified)
> 10 µM,,,,S=C1NC2=C(CCc3ccccc32)C(c2ccccc2)N1 (stereo unspecified)
> 10 µM,,,,S=C1NC2=C(CCC2)C(c2ccccc2)N1 (stereo unspecified)
> 10 µM,9.5 µM,,,CCOC(=O)C1=C(c2ccccc2)NC(=S)NC1c1cccc(OC)c1 (stereo unspecified)
0.085 µM,0.003 µM,,,COc1cccc(C2NC(=S)N(C)C3=C2C(=O)c2ccccc23)c1 (racemic)
1.7 µM,0.5 µM,,,COCCCOc1cccc(C2NC(=O)NC3=C2C(=O)c2ccccc23)c1 (racemic)
,0.98 µM,,,COc1cccc(C2C3=C(NC(=S)N2C)c2ccccc2C3=O)c1 (racemic)
3.9 µM,4.7 µM,,,COc1cccc(C2NC(=O)NC3=C2C(=O)c2ccccc23)c1 (racemic)
0.05 µM,0.011 µM,,,COCCCOc1cccc(C2NC(=S)NC3=C2C(=O)c2ccccc23)c1 (racemic)
0.13 µM,0.02 µM,,,COc1cccc(C2NC(=S)NC3=C2C(=O)c2ccccc23)c1 (racemic)
1.8 µM,1.9 µM,,,O=C1C2=C(NC(=S)NC2c2ccccc2)c2ccccc21 (racemic)
